# Experimental data as given in patent US7776858B2, “Methods of treatment of chronic pain using eszopiclone” (Sepracor Inc., priority 2004, dated 2010).
# Columns and labels:
# mice [1] = experiment: Antagonism of oxotremorine induced salivation; assay type: in vivo; details: doses up to 300 mg/kg, p.o.
# Description: (§1) Eszopiclone was evaluated for antimuscarinic activity in vivo.
# mice [2] = experiment: Antimuscarinic activity in vivo: mydriasis; details: maximum dose 100 mg/kg, p.o.
# Description: as §1
# [3] = test system: benzodiazepine receptor complex; details: cited from earlier work
# conscious dogs = experiment: Dose escalation safety study, cardiovascular and respiratory parameters after acute intravenous administration; details: acute intravenous, 3, 5 and 12 mg/kg
# Description: To establish the safety of eszopiclone, a dose escalation study was carried out. Cardiovascular and respiratory parameters were evaluated in conscious dogs following acute intravenous administration of (R)-, (S)- or racemic zopiclone at three doses (3, 5 and 12 mg/kg).
smiles,measurement,setting,value
"CN1CCN(C(=O)OC2c3nccnc3C(=O)N2c2ccc(Cl)cn2)CC1 (racemic) [racemic zopiclone, zopiclone]",antagonism of oxotremorine induced salivation,mice [1],"neither (R)-, (S)-, nor racemic zopiclone significantly antagonized"
same,mydriasis,mice [2],did not produce mydriasis
same,binding to the benzodiazepine receptor complex,[3],binds to the benzodiazepine receptor complex
same,"Blood gases and blood chemistries (pH, pCO2, pO2, hematocrit, and lactate)",conscious dogs,remained unaffected
same,cardiotoxicity by electrocardiogram (ECG),conscious dogs,No evidence of cardiotoxicity
same,effect on blood pressure,conscious dogs,"dose dependent, transient decreases"
same,effect on heart rate,conscious dogs,compensatory increase
